# Where two headings read alike, the source gives them in different places.
# Legend:
# Assay in all cases: Kinase selectivity, P33-radiolabeled assay
# Type in all cases: biochemical
# Settings in all cases: 10 μM ATP
# CAMKK2 = molecular target: T1, CAMKK2 (Homo sapiens, UniProt Q96RR4)
# T1 construct: purchased Reaction Biology Corp
# Method in brief: (§1)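 Activity relative to DMSO controls (%) was measured for compound at 10 μM. Assays ran at 10 μM ATP, in duplicate.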
# STK32C/YANK3 = molecular target: T2, STK32C/YANK3 (Homo sapiens, UniProt Q86UX6)
# T2 construct: purchased Reaction Biology Corp
# Method in brief: as §1
# ALK3/BMPR1A = molecular target: T3, ALK3/BMPR1A (Homo sapiens, UniProt P36894)
# T3 construct: purchased Reaction Biology Corp
# Method in brief: as §1
# DDR1 = molecular target: T4, DDR1 (Homo sapiens, UniProt Q08345)
# T4 construct: purchased Reaction Biology Corp
# Method in brief: as §1
# PAK1 = molecular target: T5, PAK1 (Homo sapiens, UniProt Q13153)
# T5 construct: purchased Reaction Biology Corp
# Method in brief: as §1
# PDGFRb = molecular target: T6, PDGFRb (Homo sapiens, UniProt P09619)
# T6 construct: purchased Reaction Biology Corp
# Method in brief: as §1
# FGFR3 = molecular target: T7, FGFR3 (Homo sapiens, UniProt P22607)
# T7 construct: purchased Reaction Biology Corp
# Method in brief: as §1
# SGK2 = molecular target: T8, SGK2 (Homo sapiens, UniProt Q9HBY8)
# T8 construct: purchased Reaction Biology Corp
# T8 sequence (Q9HBY8 1-367): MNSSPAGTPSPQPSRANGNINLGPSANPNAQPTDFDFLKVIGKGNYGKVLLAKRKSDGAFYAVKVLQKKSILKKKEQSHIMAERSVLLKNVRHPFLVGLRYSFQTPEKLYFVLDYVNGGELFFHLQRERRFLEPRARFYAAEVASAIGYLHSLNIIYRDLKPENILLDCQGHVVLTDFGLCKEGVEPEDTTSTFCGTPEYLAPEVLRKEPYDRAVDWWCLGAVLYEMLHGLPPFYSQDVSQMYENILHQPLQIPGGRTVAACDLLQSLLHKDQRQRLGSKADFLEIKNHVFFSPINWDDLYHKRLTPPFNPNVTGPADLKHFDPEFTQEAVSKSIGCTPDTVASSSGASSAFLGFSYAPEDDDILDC
# Method in brief: as §1
# WNK3 = molecular target: T9, WNK3 (Homo sapiens, UniProt Q9BYP7)
# T9 construct: purchased Reaction Biology Corp
# Method in brief: as §1
# DAPK1 = molecular target: T10, DAPK1 (Homo sapiens, UniProt P53355)
# T10 construct: purchased Reaction Biology Corp
# Method in brief: as §1
# PKCeta = molecular target: T11, PKCeta (Homo sapiens, UniProt P24723)
# T11 construct: purchased Reaction Biology Corp
# Method in brief: as §1
# LCK2/ICK = molecular target: T12, LCK2/ICK (Homo sapiens, UniProt Q9UPZ9)
# T12 construct: purchased Reaction Biology Corp
# T12 sequence (Q9UPZ9 1-632): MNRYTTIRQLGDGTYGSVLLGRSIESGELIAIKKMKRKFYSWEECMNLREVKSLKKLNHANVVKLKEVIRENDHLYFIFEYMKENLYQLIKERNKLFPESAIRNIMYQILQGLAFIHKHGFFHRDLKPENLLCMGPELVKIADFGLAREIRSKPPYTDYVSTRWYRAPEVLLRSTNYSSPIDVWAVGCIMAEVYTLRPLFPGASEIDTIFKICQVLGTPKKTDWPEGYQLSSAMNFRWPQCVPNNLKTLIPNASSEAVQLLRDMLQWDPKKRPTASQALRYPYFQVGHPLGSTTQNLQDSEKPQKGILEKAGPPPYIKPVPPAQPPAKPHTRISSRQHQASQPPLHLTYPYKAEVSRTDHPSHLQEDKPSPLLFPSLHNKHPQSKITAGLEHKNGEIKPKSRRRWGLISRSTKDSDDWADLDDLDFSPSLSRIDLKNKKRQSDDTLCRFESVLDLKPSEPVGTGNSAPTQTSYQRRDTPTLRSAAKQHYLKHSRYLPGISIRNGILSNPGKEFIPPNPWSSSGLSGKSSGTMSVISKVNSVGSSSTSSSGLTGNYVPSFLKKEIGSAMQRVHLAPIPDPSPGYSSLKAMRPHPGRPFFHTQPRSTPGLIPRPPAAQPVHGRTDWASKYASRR
# Method in brief: as §1
# SSTK/TSSK6 = molecular target: T13, SSTK/TSSK6 (Homo sapiens, UniProt Q9BXA6)
# T13 construct: purchased Reaction Biology Corp
# Method in brief: as §1
# HIPK4 = molecular target: T14, HIPK4 (Homo sapiens, UniProt Q8NE63)
# T14 construct: purchased Reaction Biology Corp
# T14 sequence (Q8NE63 1-616): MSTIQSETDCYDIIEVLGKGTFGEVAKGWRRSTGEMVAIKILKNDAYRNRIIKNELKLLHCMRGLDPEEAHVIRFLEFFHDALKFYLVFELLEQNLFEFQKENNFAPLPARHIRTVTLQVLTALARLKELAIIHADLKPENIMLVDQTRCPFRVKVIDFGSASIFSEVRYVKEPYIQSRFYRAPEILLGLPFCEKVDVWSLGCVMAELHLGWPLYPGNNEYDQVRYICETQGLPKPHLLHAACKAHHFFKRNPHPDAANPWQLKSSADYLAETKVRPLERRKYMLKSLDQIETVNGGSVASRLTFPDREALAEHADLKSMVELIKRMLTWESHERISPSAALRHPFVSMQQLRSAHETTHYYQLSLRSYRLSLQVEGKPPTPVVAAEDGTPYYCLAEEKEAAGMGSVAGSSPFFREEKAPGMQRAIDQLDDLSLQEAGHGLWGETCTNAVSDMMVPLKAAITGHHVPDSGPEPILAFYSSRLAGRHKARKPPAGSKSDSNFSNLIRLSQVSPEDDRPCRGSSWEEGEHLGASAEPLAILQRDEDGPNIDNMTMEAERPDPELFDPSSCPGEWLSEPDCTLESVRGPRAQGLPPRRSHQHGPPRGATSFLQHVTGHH
# Method in brief: as §1
# [1] = read-out: % Enzyme Activity (relative to DMSO controls) AVG
# [2] = read-out: % Enzyme Activity (relative to DMSO controls) Data 1
# [3] = read-out: % Enzyme Activity (relative to DMSO controls) Data 2
# T3 sequence (P36894 24-532): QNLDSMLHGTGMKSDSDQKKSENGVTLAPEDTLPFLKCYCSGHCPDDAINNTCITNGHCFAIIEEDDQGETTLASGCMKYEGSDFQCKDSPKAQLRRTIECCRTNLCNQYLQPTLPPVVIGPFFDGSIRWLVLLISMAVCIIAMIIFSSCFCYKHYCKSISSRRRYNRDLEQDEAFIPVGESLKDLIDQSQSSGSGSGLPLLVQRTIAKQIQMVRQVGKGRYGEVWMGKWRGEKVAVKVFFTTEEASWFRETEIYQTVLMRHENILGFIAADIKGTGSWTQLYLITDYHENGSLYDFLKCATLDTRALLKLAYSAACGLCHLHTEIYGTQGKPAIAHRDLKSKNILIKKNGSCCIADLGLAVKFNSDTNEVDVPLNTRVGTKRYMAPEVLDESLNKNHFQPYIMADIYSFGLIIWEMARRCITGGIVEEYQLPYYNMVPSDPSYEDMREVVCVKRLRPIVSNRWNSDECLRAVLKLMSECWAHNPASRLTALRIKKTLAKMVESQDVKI
# T9 sequence (Q9BYP7 whole entry): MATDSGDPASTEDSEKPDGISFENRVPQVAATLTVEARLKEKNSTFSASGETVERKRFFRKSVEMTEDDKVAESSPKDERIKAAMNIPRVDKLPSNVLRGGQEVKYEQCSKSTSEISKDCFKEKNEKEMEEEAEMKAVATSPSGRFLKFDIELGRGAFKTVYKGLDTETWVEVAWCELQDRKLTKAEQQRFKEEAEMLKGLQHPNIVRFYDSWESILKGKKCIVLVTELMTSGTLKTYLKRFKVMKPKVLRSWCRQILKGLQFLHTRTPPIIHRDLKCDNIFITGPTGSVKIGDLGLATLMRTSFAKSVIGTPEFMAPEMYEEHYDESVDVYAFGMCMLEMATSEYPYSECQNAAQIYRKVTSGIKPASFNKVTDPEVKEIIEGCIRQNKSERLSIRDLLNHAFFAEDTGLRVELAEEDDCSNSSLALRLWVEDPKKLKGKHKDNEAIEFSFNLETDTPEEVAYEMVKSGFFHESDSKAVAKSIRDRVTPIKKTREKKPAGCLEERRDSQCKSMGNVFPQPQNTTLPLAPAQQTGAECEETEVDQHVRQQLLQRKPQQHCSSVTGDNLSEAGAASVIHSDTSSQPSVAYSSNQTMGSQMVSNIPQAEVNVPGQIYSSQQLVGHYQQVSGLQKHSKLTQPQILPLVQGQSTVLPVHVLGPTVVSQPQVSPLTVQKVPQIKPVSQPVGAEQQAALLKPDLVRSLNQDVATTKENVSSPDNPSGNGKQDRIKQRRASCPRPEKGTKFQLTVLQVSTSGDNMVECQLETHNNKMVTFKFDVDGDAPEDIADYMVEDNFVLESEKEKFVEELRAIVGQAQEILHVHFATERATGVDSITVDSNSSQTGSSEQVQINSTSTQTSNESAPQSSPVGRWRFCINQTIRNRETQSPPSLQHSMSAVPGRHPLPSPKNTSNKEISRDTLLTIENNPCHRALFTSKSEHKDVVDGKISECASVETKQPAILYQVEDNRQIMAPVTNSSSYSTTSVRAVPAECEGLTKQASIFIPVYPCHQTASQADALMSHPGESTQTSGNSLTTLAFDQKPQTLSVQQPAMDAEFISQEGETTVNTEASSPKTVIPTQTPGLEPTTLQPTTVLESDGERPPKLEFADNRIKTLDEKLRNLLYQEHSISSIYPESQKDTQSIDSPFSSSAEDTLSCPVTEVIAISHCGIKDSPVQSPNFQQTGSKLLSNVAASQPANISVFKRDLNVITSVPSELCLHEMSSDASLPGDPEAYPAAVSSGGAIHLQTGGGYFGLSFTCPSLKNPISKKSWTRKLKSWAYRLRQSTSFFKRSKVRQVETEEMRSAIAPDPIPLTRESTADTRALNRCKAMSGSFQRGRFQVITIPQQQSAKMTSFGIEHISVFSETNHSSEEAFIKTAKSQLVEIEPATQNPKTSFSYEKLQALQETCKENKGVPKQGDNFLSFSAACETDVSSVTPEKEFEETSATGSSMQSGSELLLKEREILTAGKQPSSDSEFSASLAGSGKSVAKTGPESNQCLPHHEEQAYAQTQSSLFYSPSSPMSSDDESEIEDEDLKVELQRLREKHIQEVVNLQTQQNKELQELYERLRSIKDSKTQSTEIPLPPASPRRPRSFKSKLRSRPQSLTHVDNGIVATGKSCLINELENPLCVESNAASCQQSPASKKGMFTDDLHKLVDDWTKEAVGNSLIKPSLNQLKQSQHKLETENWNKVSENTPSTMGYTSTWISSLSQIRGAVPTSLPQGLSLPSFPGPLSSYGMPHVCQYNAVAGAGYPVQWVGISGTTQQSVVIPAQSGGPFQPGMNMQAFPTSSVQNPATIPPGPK
# T6 sequence (P09619 33-1106): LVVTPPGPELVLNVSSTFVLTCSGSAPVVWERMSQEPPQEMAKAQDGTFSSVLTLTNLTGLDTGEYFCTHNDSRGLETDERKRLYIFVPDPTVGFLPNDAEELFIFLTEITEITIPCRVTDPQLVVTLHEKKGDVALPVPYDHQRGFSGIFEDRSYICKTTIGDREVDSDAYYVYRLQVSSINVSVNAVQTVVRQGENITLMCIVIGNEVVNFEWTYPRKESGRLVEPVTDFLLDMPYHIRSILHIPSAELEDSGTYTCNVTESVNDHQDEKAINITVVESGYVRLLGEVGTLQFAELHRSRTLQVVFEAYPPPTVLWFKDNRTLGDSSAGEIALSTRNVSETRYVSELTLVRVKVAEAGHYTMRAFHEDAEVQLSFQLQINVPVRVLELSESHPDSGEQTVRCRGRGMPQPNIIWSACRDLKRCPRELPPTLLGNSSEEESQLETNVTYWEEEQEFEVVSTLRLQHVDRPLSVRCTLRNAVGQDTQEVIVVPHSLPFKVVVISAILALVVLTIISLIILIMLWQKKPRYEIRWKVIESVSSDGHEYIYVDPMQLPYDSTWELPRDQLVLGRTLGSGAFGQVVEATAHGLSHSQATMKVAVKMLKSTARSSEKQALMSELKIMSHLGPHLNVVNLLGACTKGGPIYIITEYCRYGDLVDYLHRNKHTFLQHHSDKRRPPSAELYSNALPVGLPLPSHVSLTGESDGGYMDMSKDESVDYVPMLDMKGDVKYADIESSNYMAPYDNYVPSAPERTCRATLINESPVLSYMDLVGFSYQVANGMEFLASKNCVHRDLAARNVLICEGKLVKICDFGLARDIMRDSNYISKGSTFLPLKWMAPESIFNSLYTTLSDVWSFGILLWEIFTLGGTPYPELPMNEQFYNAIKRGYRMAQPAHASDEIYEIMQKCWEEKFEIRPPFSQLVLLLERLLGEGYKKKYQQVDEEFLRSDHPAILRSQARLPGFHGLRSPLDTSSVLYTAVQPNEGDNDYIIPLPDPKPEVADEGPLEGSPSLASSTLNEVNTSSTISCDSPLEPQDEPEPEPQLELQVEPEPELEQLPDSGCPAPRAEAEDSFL
# T13 sequence (Q9BXA6 whole entry): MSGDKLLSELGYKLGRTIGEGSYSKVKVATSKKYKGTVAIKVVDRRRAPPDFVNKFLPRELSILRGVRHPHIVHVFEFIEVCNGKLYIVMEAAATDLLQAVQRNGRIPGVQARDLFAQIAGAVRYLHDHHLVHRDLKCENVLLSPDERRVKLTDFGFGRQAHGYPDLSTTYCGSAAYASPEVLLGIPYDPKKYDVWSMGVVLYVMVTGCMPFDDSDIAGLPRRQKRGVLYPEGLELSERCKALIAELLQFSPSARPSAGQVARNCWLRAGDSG
# T7 sequence (P22607 23-806): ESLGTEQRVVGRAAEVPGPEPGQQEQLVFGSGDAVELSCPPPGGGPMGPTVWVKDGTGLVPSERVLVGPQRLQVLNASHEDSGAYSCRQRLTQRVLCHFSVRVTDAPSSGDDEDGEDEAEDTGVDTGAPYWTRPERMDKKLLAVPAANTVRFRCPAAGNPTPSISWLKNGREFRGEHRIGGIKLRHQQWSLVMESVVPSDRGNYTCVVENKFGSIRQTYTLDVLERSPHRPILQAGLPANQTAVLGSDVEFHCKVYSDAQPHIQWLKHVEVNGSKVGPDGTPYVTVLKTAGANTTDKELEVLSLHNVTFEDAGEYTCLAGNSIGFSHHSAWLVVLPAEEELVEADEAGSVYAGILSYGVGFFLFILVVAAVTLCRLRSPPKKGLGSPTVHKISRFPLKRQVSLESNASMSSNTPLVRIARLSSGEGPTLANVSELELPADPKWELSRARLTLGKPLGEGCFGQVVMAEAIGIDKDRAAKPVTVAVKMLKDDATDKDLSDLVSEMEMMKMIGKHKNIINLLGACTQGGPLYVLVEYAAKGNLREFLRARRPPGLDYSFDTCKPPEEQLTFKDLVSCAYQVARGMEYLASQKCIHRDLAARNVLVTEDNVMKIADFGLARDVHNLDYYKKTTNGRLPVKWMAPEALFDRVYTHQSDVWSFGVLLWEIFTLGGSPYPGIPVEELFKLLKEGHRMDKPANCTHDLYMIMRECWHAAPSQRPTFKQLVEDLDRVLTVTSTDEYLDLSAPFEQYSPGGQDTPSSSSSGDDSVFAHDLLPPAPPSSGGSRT
# T1 sequence (Q96RR4 whole entry): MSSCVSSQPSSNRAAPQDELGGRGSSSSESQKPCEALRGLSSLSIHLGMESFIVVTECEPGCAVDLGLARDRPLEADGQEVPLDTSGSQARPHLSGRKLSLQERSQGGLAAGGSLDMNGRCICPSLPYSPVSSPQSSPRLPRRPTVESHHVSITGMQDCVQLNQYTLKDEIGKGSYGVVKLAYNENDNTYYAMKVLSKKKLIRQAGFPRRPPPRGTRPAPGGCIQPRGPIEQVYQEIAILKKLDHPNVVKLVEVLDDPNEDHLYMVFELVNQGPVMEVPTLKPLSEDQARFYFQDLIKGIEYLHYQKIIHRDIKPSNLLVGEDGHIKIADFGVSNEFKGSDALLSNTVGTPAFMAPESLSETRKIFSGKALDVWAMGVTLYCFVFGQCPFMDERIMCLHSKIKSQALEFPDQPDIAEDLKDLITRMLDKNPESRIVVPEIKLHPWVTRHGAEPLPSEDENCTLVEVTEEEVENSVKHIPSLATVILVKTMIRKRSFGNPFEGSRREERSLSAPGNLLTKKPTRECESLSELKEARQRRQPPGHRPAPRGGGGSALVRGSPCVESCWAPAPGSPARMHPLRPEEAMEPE
compound,measurement,setting,value
CC(C)(C)C(=O)N1N=CC[C@H]1c1ccccc1 [GSK′963],remaining activity at 10 µM,CAMKK2; [1],83%
same,remaining activity at 10 µM,CAMKK2; [2],86.1%
same,remaining activity at 10 µM,CAMKK2; [3],80%
same,remaining activity at 10 µM,STK32C/YANK3; [1],98.9%
same,remaining activity at 10 µM,STK32C/YANK3; [2],97.5%
same,remaining activity at 10 µM,STK32C/YANK3; [3],100%
same,remaining activity at 10 µM,ALK3/BMPR1A; [1],101%
same,remaining activity at 10 µM,ALK3/BMPR1A; [2],103%
same,remaining activity at 10 µM,ALK3/BMPR1A; [3],99.8%
same,remaining activity at 10 µM,DDR1; [1],96%
same,remaining activity at 10 µM,DDR1; [2],94%
same,remaining activity at 10 µM,DDR1; [3],97.9%
same,remaining activity at 10 µM,PAK1; [1],92.8%
same,remaining activity at 10 µM,PAK1; [2],92.5%
same,remaining activity at 10 µM,PAK1; [3],93%
same,remaining activity at 10 µM,PDGFRb; [1],104%
same,remaining activity at 10 µM,PDGFRb; [2],101%
same,remaining activity at 10 µM,PDGFRb; [3],107%
same,remaining activity at 10 µM,FGFR3; [1],99.4%
same,remaining activity at 10 µM,FGFR3; [2],103%
same,remaining activity at 10 µM,FGFR3; [3],95.7%
same,remaining activity at 10 µM,SGK2; [1],107%
same,remaining activity at 10 µM,SGK2; [2],109%
same,remaining activity at 10 µM,SGK2; [3],106%
same,remaining activity at 10 µM,WNK3; [1],100%
same,remaining activity at 10 µM,WNK3; [2],97.5%
same,remaining activity at 10 µM,WNK3; [3],103%
same,remaining activity at 10 µM,DAPK1; [1],70.8%
same,remaining activity at 10 µM,DAPK1; [2],72.5%
same,remaining activity at 10 µM,DAPK1; [3],69.2%
same,remaining activity at 10 µM,PKCeta; [1],113%
same,remaining activity at 10 µM,PKCeta; [2],112%
same,remaining activity at 10 µM,PKCeta; [3],114%
same,remaining activity at 10 µM,LCK2/ICK; [1],101%
same,remaining activity at 10 µM,LCK2/ICK; [2],100%
same,remaining activity at 10 µM,LCK2/ICK; [3],101%
same,remaining activity at 10 µM,SSTK/TSSK6; [1],99%
same,remaining activity at 10 µM,SSTK/TSSK6; [2],99.3%
same,remaining activity at 10 µM,SSTK/TSSK6; [3],98.6%
same,remaining activity at 10 µM,HIPK4; [1],99.5%
same,remaining activity at 10 µM,HIPK4; [2],96.7%
same,remaining activity at 10 µM,HIPK4; [3],102%

# — PMC4979471 (Cell Death Discovery, 2015)
